Patent US20140004062A1, “COMPOSITION INCLUDING 3-BROMO-4,5-DIHYDROXYBENZALDEHYDE COMPOUND AS EFFECTIVE COMPONENT FOR PROTECTING AND TREATING SKIN CELL AGANIST ULTRAVIOLET” (Jeju National University Industry-Academic Cooperation …, priority 2012, published 2014)

Assays:
HaCaT cells [1] = test: MTT assay, viability of HaCaT cells treated with BDB; assay type: cell-based, human; details: up to the concentration of 30 μM; tested at 10-50 μM
Description: (§1) Human keratinocytes (HaCaT cells) were obtained from the Amore Pacific Company (Gyeonggi-do, Republic of Korea). Cells were maintained at 37° C. in an incubator with a humidified atmosphere of 5% CO2. Cells were cultured in Dulbecco's modified Eagle's medium containing 10% heat-inactivated fetal calf serum, streptomycin (100 μg/mL) and penicillin (100 unit/mL).
(§2) The effect of BDB on the viability of HaCaT cells was assessed as follows. Cells were seeded in a 96-well plate at a density of 1×10^5 cells/mL. Sixteen hours after plating, BDB was added at a concentration of at 10, 20, 30, 40, and 50 μM. To evaluate the ability of BDB to protect keratinocytes against UVB-exposure, BDB was added at a concentration of 10, and 30 μM, and cells were exposed to UVB radiation one hour later and incubated at 37° C. for 24 h. Fifty microliter of MTT stock solution (2 mg/mL) was added to each well to yield a total reaction volume of 200 μl. After incubating the cells for 4 h, the plate was centrifuged at 800×g for 5 min, and the supernatants were aspirated. The formazan crystals in each well were dissolved in dimethylsulfoxide (150 μl), and the absorbance at 540 nm was read on a scanning multi-well spectrophotometer.

HaCaT cells [2] = test: MTT assay, viability of UVB-exposed HaCaT cells; assay type: cell-based; details: Homo sapiens, light or radiation study, UVB 1 h later, 24 h, untreated UVB cells 65%, read-out: viability of the cell exposed to UVB
Description: as §1, §2

[3] = DPPH radical removal ability; assay type: physicochemical; details: 3 h
Description: BDB at a concentration of 10, 20, 30 μM and 2 mM NAC were added to a 1×10^−4 M solution of DPPH in methanol. The resulting reaction mixture was shaken vigorously. After 3 h, the amount of unreacted DPPH was measured at 520 nm using a spectrophotometer.

HaCaT keratinocytes [4] = test: Intracellular ROS induced by H2O2, DCF-DA method; assay type: cell-based, human; details: H2O2 1 mM
Description: (§3) The DCF-DA method was used to detect intracellular ROS levels in HaCaT keratinocytes generated by either H2O2 or UVB radiation. For the detection of ROS in H2O2-treated cells, cells were seeded at a density of 1.5×10^5 cells/well. Sixteen hours after plating, cells were treated with BDB at a concentration of 10, 20, 30 μM and 2 mM NAC. After 30 min, H2O2 (1 mM) was added to the plate. Cells were incubated for an additional 30 min at 37° C., and DCF-DA solution (25 μM) was then added. Ten minutes after the addition of DCF-DA, the fluorescence of 2′,7′-dichlorofluorescein (DCF) was detected and quantified using a PerkinElmer LS-5B spectrofluorometer (PerkinElmer, Waltham, Mass., USA). For the detection of ROS in UVB-exposed cells, cells were treated with BDB as above. After one hour, cells were exposed to UVB radiation at a dose of 30 mJ/cm^2. […] Cells were incubated for an additional 24 h at 37° C., DCF-DA solution (25 μM) was added and detected as above.

HaCaT keratinocytes [5] = test: Intracellular ROS induced by UVB, DCF-DA method; assay type: cell-based, human; details: UVB 30 mJ/cm^2, 24 h
Description: as §3

[6] = Detection of superoxide anion, xanthine/xanthine oxidase system, ESR spectrometry; assay type: physicochemical; details: BDB 30 μM; signal without BDB 2765
Description: The superoxide anion was produced via the xanthine/xanthine oxidase system and then reacted with a nitrone spin trap, DMPO. The DMPO/.OOH adducts were detected using a JES-FA electron spin resonance (ESR) spectrometer (JEOL, Tokyo, Japan). Briefly, ESR signaling was recorded 5 min after 20 μl of xanthine oxidase (0.25 U/mL) was mixed with 20 μl each of xanthine (5 mM), DMPO (1.5 M) and BDB (30 μM). The ESR spectrometer parameters were set at a magnetic field of 336 mT, power of 1.00 mW, frequency of 9.4380 GHz, modulation amplitude of 0.2 mT, gain of 500, scan time of 0.5 min, scan width of 10 mT, time constant of 0.03 sec, and temperature of 25° C.

[7] = Detection of hydroxyl radical, Fenton reaction, ESR spectrometry; assay type: physicochemical; details: BDB 30 μM; signal without BDB 3851
Description: The hydroxyl radical was generated by the Fenton reaction (H2O2+FeSO4) and then reacted with DMPO. The resultant DMPO/.OH adducts were detected using an ESR spectrometer. The ESR spectrum was recorded 2.5 min after a phosphate buffer solution (pH 7.4) was mixed with 0.2 mL each of 0.3 M DMPO, 10 mM FeSO4, 10 mM H2O2, and BDB (30 μM). The ESR spectrometer parameters were set at a magnetic field of 336 mT, power of 1.00 mW, frequency of 9.4380 GHz, modulation amplitude of 0.2 mT, gain of 200, scan time of 0.5 min, scan width of 10 mT, time constant of 0.03 sec, and temperature of 25° C.

[8] = UVB absorption analysis, ultraviolet/visible spectrophotometer; assay type: physicochemical
Description: To study the UVB absorption spectra of BDB, which was diluted in DMSO at a ratio 1:500 (v/v), it was scanned by UV at 200-500 nm using Biochrom Libra S22 ultraviolet/visible spectrophotometer.

HaCaT cells [9] = test: Lipid peroxidation, 8-isoprostane enzyme immunoassay; assay type: cell-based, human; details: UVB-exposed cells treated with BDB, 24 h; UVB alone 3.1 pg/mg
Description: (§4) A cell was exposed to UVB, and then after 24 hours, effects of BDB in inhibiting the cell membrane lipid peroxidation, a protein modification, and a cell DNA damage of UVB-irradiated cell was observed. Lipid peroxidation was assayed by the determination of 8-isoprostane levels in the culture medium. A commercial enzyme immunoassay (Cayman Chemical, Ann Arbor, Mich., USA) was employed according to the manufacturer's instructions. Lipid peroxidation was also estimated using a fluorescent probe, DPPP. Cells were incubated with 5 μM DPPP for 15 min in the dark and then exposed to UVB. DPPP fluorescence image was captured using a Zeiss Axiovert 200 inverted microscope at an excitation wavelength of 351 nm and an emission wavelength of 380 nm and quantified.

HaCaT cells [10] = test: Lipid peroxidation, DPPP fluorescent probe; assay type: cell-based, human; details: UVB-irradiated cells treated with BDB
Description: as §4

HaCaT cells [11] = test: Protein carbonyl formation ELISA; assay type: cell-based, human; details: UVB-irradiated cells treated with BDB
Description: The amount of carbonyl formation in protein was determined using an Oxiselect™ protein carbonyl ELISA kit purchased from Cell Biolabs (San Diego, Calif., USA) according to the manufacturer's instructions.

HaCaT cells [12] = test: Comet assay, oxidative DNA damage; assay type: cell-based, human; details: UVB-exposed cells treated with BDB; UVB alone 37%
Description: The degree of oxidative DNA damage was determined in a comet assay. Cell suspension was mixed with 75 μL of 0.5% low melting agarose (LMA) at 39° C. and the mixture was spread on a fully frosted microscopic slide pre-coated with 200 μL of 1% normal melting agarose (NMA). After solidification of the agarose, the slide was covered with another 75 μl of 0.5% LMA and then immersed in a lysis solution (2.5 M NaCl, 100 mM Na-EDTA, 10 mM Tris, 1% Trion X-100 and 10% DMSO, pH 10) for 1 h at 4° C. The slides were then placed in a gel-electrophoresis apparatus containing 300 mM NaOH and 10 mM Na-EDTA (pH 13) for 40 min to allow for DNA unwinding and the expression of the alkali-labile damage. An electrical field was then applied (300 mA, 25 V) for 20 min at 4° C. to draw the negatively charged DNA towards the anode. The slides were washed three times for 5 min at 4° C. in a neutralizing buffer (0.4 M Tris, pH 7.5), stained with 75 μL of propidium iodide (20 μg/mL) and observed using a fluorescence microscope and an image analyzer (Kinetic Imaging, Komet 5.5, UK). The percentage of total fluorescence in the DNA tails and the tail length of 50 cells per slide were recorded.

HaCaT cells [13] = test: Nuclear staining with Hoechst 33342, apoptotic bodies; assay type: cell-based, human; details: BDB 30 μM, UVB 1 h later, 24 h; UVB alone 16
Description: Cells were treated with BDB at a concentration of 30 μM and exposed to UVB radiation 1 h later. Cells were incubated for an additional 24 h at 37° C. Hoechst 33342 (1.5 μL of a 10 mg/mL stock), a DNA-specific fluorescent dye, was added to each well, and the cells were incubated for 10 min at 37° C. The stained cells were visualized under a fluorescence microscope equipped with a CoolSNAP-Pro color digital camera. The degree of nuclear condensation was evaluated, and the apoptotic cells were quantified.

HaCaT cells [14] = test: Sub-G1 hypodiploid cells, flow cytometry; assay type: cell-based, human; details: BDB 30 μM, UVB 1 h later, 24 h; UVB alone 17%, no UVB 1%
Description: Flow cytometry was performed in order to determine the apoptotic sub-G1 hypodiploid cells. Cells were treated with BDB at a concentration of 30 μM and exposed to UVB radiation 1 h later. Cells were incubated for an additional 24 h at 37° C. Cells were harvested, and fixed in 1 mL of 70% ethanol for 30 min at 4° C. Cells were washed twice with PBS, and then incubated for 30 min in the dark at 37° C. in 1 mL of PBS containing 100 μg propidium iodide and 100 μg RNase A. Flow cytometric analysis was performed using a FACS Calibur flow cytometer (Becton Dickinson, Mountain View, Calif., USA). Sub-G1 hypodiploid cells were assessed based on the histograms generated using the computer programs, Cell Quest and Mod-Fit.

HaCaT cells [15] = test: Cytoplasmic histone-associated DNA fragmentation kit; assay type: cell-based, human; details: UVB-irradiated cells treated with BDB
Description: Cellular DNA fragmentation was assessed by analyzing the extent of cytoplasmic histone-associated DNA fragmentation using a kit from Roche Diagnostics (Portland, Oreg., USA) according to the manufacturer's instructions. A cytoplasmic histone-associated DNA fragmentation was increased in UVB-irradiated cells as compared with control cells. The level of DNA fragmentation was decreased in UVB-irradiated cells that were treated with BDB (see FIG. 4c).

[16] = tested on: hematopoietic necrosis virus; details: cited from earlier work
[17] = tested on: infectious pancreatic necrosis virus; details: cited from earlier work
[18] = UV/visible scan 200 nm to 500 nm

Structure (SMILES): O=Cc1cc(O)c(O)c(Br)c1 [BDB, 3-Bromo-4,5-dihydroxybenzaldehyde]
- toxicity on human HaCaT keratinocyte (cell viability, MTT) (HaCaT cells [1]): does not exhibit toxicity
- viability at 10 µM (HaCaT cells [2]; BDB 10 μM): 73%
- viability at 20 µM (HaCaT cells [2]; BDB 20 μM): 73%
- viability at 30 µM (HaCaT cells [2]; BDB 30 μM): 77%
- DPPH radical scavenged ([3]; 10 μM, 1×10^−4 M DPPH in methanol): 6%
- DPPH radical scavenged ([3]; 20 μM, 1×10^−4 M DPPH in methanol): 21%
- DPPH radical scavenged ([3]; 30 μM, 1×10^−4 M DPPH in methanol): 25%
- intracellular ROS induced by H2O2 removed (HaCaT keratinocytes [4]; 10 μM): 64%
- intracellular ROS induced by H2O2 removed (HaCaT keratinocytes [4]; 20 μM): 67%
- intracellular ROS induced by H2O2 removed (HaCaT keratinocytes [4]; 30 μM): 70%
- intracellular ROS induced by UVB removed (HaCaT keratinocytes [5]; 10 μM): 17%
- intracellular ROS induced by UVB removed (HaCaT keratinocytes [5]; 20 μM): 22%
- intracellular ROS induced by UVB removed (HaCaT keratinocytes [5]; 30 μM): 23%
- superoxide anion signal (ESR, DMPO/.OOH adducts) [6]: 2063
- hydroxyl radical signal (ESR, DMPO/.OH adducts) [7]: 3002
- absorption peak 1 position [8, 18]: 288 nm
- absorption peak 2 position [8, 18]: 357 nm
- UVB absorption ability ([8]; diluted in DMSO 1:500 (v/v), scanned at 200-500 nm): exhibited the absorption ability at 280 to 320 nm
- 8-isoprostane level (lipid peroxidation) (HaCaT cells [9]): 1.9 pg/mg
- DPPP fluorescence (lipid peroxidation) (HaCaT cells [10]): exhibited the fluorescence in the more small range
- carbonyl formation induced by UVB (protein carbonyl level) (HaCaT cells [11]): inhibited
- ratio of DNA in the tail (comet assay) (HaCaT cells [12]): 18%
- Apoptotic Index (nuclear segments, Hoechst 33342) (HaCaT cells [13]): 9
- apoptotic sub-G1 DNA (HaCaT cells [14]): 8%
- level of cytoplasmic histone-associated DNA fragmentation (HaCaT cells [15]): decreased
- antiviral effect [16]: antiviral effect
- antiviral effect [17]: antiviral effect

Structure (SMILES): CC(=O)N[C@@H](CS)C(=O)O [NAC, N-acetyl cysteine, reference compound]
- DPPH radical scavenged ([3]; 2 mM, positive control): 89%
- intracellular ROS induced by H2O2 removed (HaCaT keratinocytes [4]; 2 mM): 80%
- intracellular ROS induced by UVB removed (HaCaT keratinocytes [5]; 2 mM): 22%
